The test system of series [1] is Fusarium graminearum. Format: in vivo.
Another series concerns Pyricularia oryzae. Format: in vivo.
For a further series, the system named is Uromyces appendiculatus. The series can be described thus: Example B: Uromyces test (beans) / preventive. As to conditions: in vivo. The format is in vivo.
The subject of a further series is Pyrenophora teres. The series can be described thus: Example D: Pyrenophora test (barley) / preventive. The format is in vivo.
The test system of another series is Plasmopara viticola. In words: Example H: Plasmopara test (grapevines) / preventive. The format is in vivo.
A further series relates to Venturia inaequalis. In words: Example I: Venturia test (apples) / preventive. As to conditions: 100 ppm of active ingredient, preventive spray, evaluated 10 days after inoculation.
The next series concerns Sphaerotheca fuliginea. In words: Example A: Sphaerotheca test (cucumber) / preventive. Format: in vivo.
Another series deals with Septoria tritici. In words: Example J: Septoria tritici test (wheat) / preventive. Format: in vivo.
The nature of series [2]: Determination of log P values by HPLC on a reverse phase column (C18), EEC-Directive 79/831 Annex V.A8 (Methods A, B, C). Format: physicochemical. As to conditions: for chromatographic logP: reverse phase C18 HPLC column. The gist of the method: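 Three C18 chromatographic methods following EEC-Directive 79/831 Annex V.A8 gave the logP values. Method C (UPLC, 2.1 mm column) ran at 40 °C and 0.8 mL/min with a 3.25 min 10–95% acetonitrile gradient. Methods A and B both ran at 55 °C and 2.0 mL/min, with gradients of 10–95% in 4.25 min and 5–95% in 1.70 min.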

The test system of series [3] is Fusarium nivale (var. majus). The series can be described thus: Example K: Fusarium nivale (var. majus) test (wheat) / preventive. Format: in vivo. The following applies: 500 ppm of active ingredient, preventive spray, evaluated 5 days after inoculation. The protocol: After the spray coating has been dried, the plants are slightly injured by using a sandblast and afterwards they are sprayed with a conidia suspension of Fusarium nivale (var. majus).
The test is evaluated 5 days after the inoculation.

Another series relates to Leptosphaeria nodorum. In words: Example C: Leptosphaeria test (wheat) / preventive. The format is in vivo. The following applies: in vivo.
The next series relates to Puccinia recondita. In words: Example E: Puccinia test (wheat) / preventive. The format is in vivo.
The test system of a further series is Phytophthora infestans. Format: in vivo.
Series [4] relates to Fusarium graminearum. The series can be described thus: microbe, parasite or virus in culture. The format is cell-based. As to conditions: at 50 μM.
Series [5] has as its system DON/Acetyl-DON production by Fusarium graminearum. In words: microbe, parasite or virus in culture. Format: cell-based.
Setting [6] is: Method B (HPLC, reverse phase C18).
The mark [7] stands for this setting: Method C (HPLC, reverse phase C18).
The mark [8] stands for this setting: Method A: HPLC, reverse phase C18, acetonitrile (0.1% formic acid)/water (0.09% formic acid) gradient.

The term LogP denotes the decadic logarithm of the partition coefficient of the neutral form, usually between octanol and water. A higher LogP goes with a more lipophilic compound.

Read-outs that look alike come from different tables or passages of the source.

Description for Venturia inaequalis: After the spray coating has dried on, the plants are inoculated with an aqueous conidia suspension of the causal agent of apple scab (Venturia inaequalis) and then remain for 1 day in an incubation cabinet at approximately 20° C. and a relative atmospheric humidity of 100%.
The plants are then placed in a greenhouse at approximately 21° C. and a relative atmospheric humidity of approximately 90%.
The test is evaluated 10 days after the inoculation.

As for `CC(C)CC(=O)Nc1cc(-c2c(-c3ccccc3)nn3c2OCCC3)ccn1` [Example 11], the efficacy came to 100% in the series on Fusarium graminearum [1] (in vivo); 94% with Pyricularia oryzae (in vivo); 94% with Uromyces appendiculatus; 100% with Pyrenophora teres (in vivo); 86% in the series on Plasmopara viticola (in vivo); 100% with Venturia inaequalis. Moreover, the efficacy in the series with Sphaerotheca fuliginea (in vivo) came out at 100%; in the series with Septoria tritici (in vivo), 70%; in series [3], 100%; in the series with Leptosphaeria nodorum, 100%; in the series on Puccinia recondita (in vivo) it was 100%. Besides, in [2] (setting [6]), the LogP amounted to 1.66.
Regarding `CCC(=O)Nc1cc(-c2c(-c3ccc(F)cc3)nn3cccnc23)ccn1` [Example 79], the efficacy in the series with Pyrenophora teres (in vivo) stood at 100%; in the series with Plasmopara viticola (in vivo), 88%; with Phytophthora infestans (in vivo), 95%; in the series with Venturia inaequalis, 96%; with Sphaerotheca fuliginea (in vivo) it was 80%. The compound also displayed a LogP in series [2] (setting [7]) of 1.91.
With `CC(C)C(=O)Nc1cc(-c2c(-c3ccccc3)nn3c2OCCC3)ccn1` [Example 8], the efficacy is recorded as 100% in the series with Fusarium graminearum [1] (in vivo); 94% with Pyricularia oryzae (in vivo); 94% with Uromyces appendiculatus; 95% in the series on Pyrenophora teres (in vivo); 100% with Plasmopara viticola (in vivo); 95% in the series on Phytophthora infestans (in vivo). For the same compound, the efficacy in the series on Venturia inaequalis was 98%; with Sphaerotheca fuliginea (in vivo) it was 100%; in the series on Septoria tritici (in vivo), 80%; in [3] it was 93%; in the series on Leptosphaeria nodorum, 95%; with Puccinia recondita (in vivo), 100%. The compound also displayed a LogP in series [2] (setting [6]) of 1.39.
With `CC(=O)Nc1cc(-c2c(-c3ccc(F)cc3)nn3c2OC[Si](C)(C)C3)ccn1` [Example 61], the efficacy in the series on Pyricularia oryzae (in vivo) is listed as 70%; with Uromyces appendiculatus, 84%; in the series on Pyrenophora teres (in vivo), 95%; in the series with Plasmopara viticola (in vivo) it was 100%; with Phytophthora infestans (in vivo), 71%; with Venturia inaequalis it was 96%. For the same compound, the efficacy came to 78% in the series on Leptosphaeria nodorum and 75% with Puccinia recondita (in vivo). This compound also returned a LogP in [2] (setting [7]) of 2.01.
With `CC(C)C(=O)Nc1cc(-c2c(-c3ccc(F)cc3F)nn3c2OCCC3)ccn1` [Example 37], the efficacy in the series on Fusarium graminearum [1] (in vivo) amounted to 100%; with Pyricularia oryzae (in vivo) it was 94%; in the series on Uromyces appendiculatus, 94%; in the series on Pyrenophora teres (in vivo), 95%; in the series with Plasmopara viticola (in vivo), 100%; with Phytophthora infestans (in vivo), 95%. Moreover, the efficacy in the series on Venturia inaequalis is on record as 100%; in the series with Sphaerotheca fuliginea (in vivo), 100%; in the series on Septoria tritici (in vivo), 88%; in [3], 100%; in the series with Leptosphaeria nodorum it was 70%; in the series with Puccinia recondita (in vivo), 100%. In [2] (setting [6]), this compound returned a LogP of 1.6.
`CCC(=O)N(C(C)=O)c1cc(-c2c(-c3ccc(F)cc3)nn3c2OCCC3)ccn1` [Example 52]: the efficacy in the series on Fusarium graminearum [1] (in vivo) stood at 100%; with Pyricularia oryzae (in vivo), 95%; in the series with Pyrenophora teres (in vivo), 95%; in the series on Plasmopara viticola (in vivo), 84%; in the series on Phytophthora infestans (in vivo) it was 95%; in the series with Venturia inaequalis, 98%. Also, the efficacy in the series on Sphaerotheca fuliginea (in vivo) came to 95%; with Septoria tritici (in vivo), 100%; in [3], 100%; in the series with Leptosphaeria nodorum, 80%; in the series with Puccinia recondita (in vivo), 95%. The LogP in series [2] (setting [8]) is 2.4.
In the case of `CCC(=O)Nc1cc(-c2c(-c3ccccc3)nn3c2OCCC3)ccn1` [Example 6], the efficacy came to 100% in the series with Fusarium graminearum [1] (in vivo); 94% in the series on Pyricularia oryzae (in vivo); 89% with Uromyces appendiculatus; 95% in the series on Pyrenophora teres (in vivo); 94% with Plasmopara viticola (in vivo); 96% in the series on Phytophthora infestans (in vivo). Also, the efficacy in the series with Venturia inaequalis worked out at 100%; in the series with Sphaerotheca fuliginea (in vivo), 98%; in the series on Septoria tritici (in vivo), 100%; in [3], 100%; with Leptosphaeria nodorum it was 90%; in the series with Puccinia recondita (in vivo), 100%. In series [2] (setting [6]), this compound came in with a LogP of 1.16.
As for `CCC(=O)N(C(=O)C1CC1)c1cc(-c2c(-c3ccc(F)cc3)nn3c2OCCC3)ccn1` [Example 54], the efficacy in the series on Fusarium graminearum [1] (in vivo) amounted to 100%; in the series on Pyricularia oryzae (in vivo), 90%; in the series with Pyrenophora teres (in vivo), 95%; with Plasmopara viticola (in vivo), 100%; with Phytophthora infestans (in vivo), 99%; with Venturia inaequalis, 95%. Also, the efficacy with Sphaerotheca fuliginea (in vivo) is 100%; with Septoria tritici (in vivo) it was 100%; in series [3], 100%; with Leptosphaeria nodorum, 80%; in the series on Puccinia recondita (in vivo), 95%. In series [2] (setting [8]), this compound yielded a LogP of 2.77.
With `CCC(=O)Nc1cc(-c2c(-c3cccs3)nn3c2OC[Si](C)(C)C3)ccn1` [Example 82], the “Growth inhibition of Fusarium graminearum in %” value in the series with Fusarium graminearum [4] was determined as 100%. Also, the efficacy was determined as 70% in the series with Pyricularia oryzae (in vivo); 95% in the series on Pyrenophora teres (in vivo); 100% in the series with Plasmopara viticola (in vivo); 85% in the series on Phytophthora infestans (in vivo); 94% in the series with Venturia inaequalis; 70% in the series on Puccinia recondita (in vivo). Further, in series [5] (at 50 μM), the “Inhibition of DON/AcDON in %” value is 100%. The same compound gave a LogP in series [2] (setting [7]) of 1.81.
With `CC(C)C(=O)Nc1cc(-c2c(-c3cccs3)nn3c2OC[Si](C)(C)C3)ccn1` [Example 86], the “Growth inhibition of Fusarium graminearum in %” value in the series on Fusarium graminearum [4] was 100%. For the same compound, the efficacy was 80% in the series with Pyricularia oryzae (in vivo); 94% in the series on Uromyces appendiculatus; 90% with Pyrenophora teres (in vivo); 100% in the series on Plasmopara viticola (in vivo); 98% with Phytophthora infestans (in vivo); 100% with Venturia inaequalis. Besides, the efficacy in the series with Puccinia recondita (in vivo) came out at 95%. Besides, the “Inhibition of DON/AcDON in %” value in [5] (at 50 μM) was found to be 99%. The compound also returned a LogP in series [2] (setting [7]) of 2.28.
`CC(C)CC(=O)Nc1cc(-c2c(-c3ccc(F)cc3)nn3c2OCCC3)ccn1` [Example 25]: the efficacy stood at 100% with Fusarium graminearum [1] (in vivo); 100% in the series with Pyricularia oryzae (in vivo); 94% in the series on Uromyces appendiculatus; 100% with Pyrenophora teres (in vivo); 98% in the series with Plasmopara viticola (in vivo); 93% in the series on Phytophthora infestans (in vivo). Besides, the efficacy is 100% with Venturia inaequalis; 100% with Sphaerotheca fuliginea (in vivo); 80% in the series on Septoria tritici (in vivo); 100% in [3]; 95% with Leptosphaeria nodorum; 100% in the series with Puccinia recondita (in vivo). Also, the LogP in series [2] (setting [6]) was determined as 1.82.
Consider `CC(=O)Nc1cc(-c2c(-c3cccs3)nn3c2OC[Si](C)(C)C3)ccn1` [Example 85], for which the efficacy turned out to be 71% with Fusarium graminearum [1] (in vivo); 90% in the series on Pyricularia oryzae (in vivo); 95% in the series with Pyrenophora teres (in vivo); 97% in the series with Plasmopara viticola (in vivo); 95% with Phytophthora infestans (in vivo); 97% in the series with Venturia inaequalis. The efficacy in the series with Septoria tritici (in vivo) was found to be 86%; in [3], 100%; in the series with Leptosphaeria nodorum it was 90%; with Puccinia recondita (in vivo), 78%. In addition, the “Inhibition of DON/AcDON in %” value in [5] (50 µM) came to 99%. In addition, the LogP in series [2] (setting [7]) turned out to be 1.74.
In the case of `CCC(=O)Nc1cc(-c2c(-c3ccc(F)cc3)nn3c2OCCC3C)ccn1` (centres unmarked) [Example 63, N-{4-[2-(4-fluorophenyl)-7-methyl-6,7-dihydro-5H-pyrazolo[5,1-b][1,3]oxazin-3-yl]pyridin-2-yl}propanamide], the efficacy in the series with Fusarium graminearum [1] (500 ppm of active ingredient, barley, preventive spray, evaluated 5 days after inoculation) is listed as 88%; with Pyricularia oryzae (500 ppm of active ingredient, rice, preventive spray, evaluated 7 days after inoculation), 95%; in the series on Pyrenophora teres (500 ppm of active ingredient, barley, preventive spray, evaluated 7-9 days after inoculation), 100%; with Plasmopara viticola (100 ppm of active ingredient, grapevines, preventive spray, evaluated 6 days after inoculation), 95%; in the series with Phytophthora infestans (100 ppm of active ingredient, tomatoes, preventive spray, evaluated 3 days after inoculation) it was 95%; in the series on Venturia inaequalis, 100%. Also, the efficacy in the series with Sphaerotheca fuliginea (500 ppm of active ingredient, cucumber, preventive spray, evaluated 7 days after inoculation) worked out at 95%; in the series with Septoria tritici (500 ppm of active ingredient, wheat, preventive spray, evaluated 21 days after inoculation), 94%; in series [3], 100%; in the series with Puccinia recondita (500 ppm of active ingredient, wheat, preventive spray, evaluated 7-9 days after inoculation), 80%. Besides, the chromatographic logP in series [2] (Method A: HPLC, reverse phase C18, acetonitrile (0.1% formic acid)/water (0.09% formic acid) gradient, read-out: LogP) was determined as 1.61; in series [2] (pH 2.7, values in the synthesis examples, HPLC, reverse phase C18, read-out: log P (pH 2.7)), 1.61.
Turning to `O=C(CC(F)(F)F)Nc1cc(-c2c(-c3ccccc3)nn3c2OCCC3)ccn1` [Example 17], the efficacy with Pyricularia oryzae (in vivo) is 94%; with Uromyces appendiculatus, 94%; with Pyrenophora teres (in vivo), 95%; with Plasmopara viticola (in vivo) it was 100%; in the series with Phytophthora infestans (in vivo), 95%; with Venturia inaequalis, 100%. Moreover, the efficacy (in [3]; in the series on Puccinia recondita (in vivo)) was 100% throughout. This compound also showed a LogP in [2] (setting [6]) of 1.98.

The values are drawn from patent US9023844B2, “Heterocyclylpyri (mi) dinylpyrazole as fungicidals” (Bayer Intellectual Property GmbH, priority 2011, dated 2015).
